This is an account of results in patent US9956319B2, “Compositions useful as antibiofilm or antimicrobial agents and methods using same” (BAYLOR COLLEGE OF MEDICINE, priority 2012, dated 2018).

Molecules are shown by their SMILES.

What all share (assay): Zones of inhibition of impregnated catheter segments, modified Kirby-Bauer method
One experiment has as its system MRSA. It is filed as cell-based, Staphylococcus aureus. The protocol:
(§1) To evaluate the antimicrobial activity of central venous catheters treated with α-lipoic acid or its combination with gentamicin, segments of 7 French triple lumen polyurethane central venous catheters were impregnated with α-lipoic acid, gentamicin, or the combination of lipoic acid and gentamicin using the same patented method described in Example 1 with 50 mg/ml of each agent (for the final solution volume). After the impregnation process and drying, zones of inhibition were performed on one-centimeter segments according to a modified Kirby-Bauer method against MSSE, MRSE, MRSA, K. pneumoniae, E. coli, P. mirabilis, Pseudomonas aeruginosa, and Candida albicans. Each segment was half embedded in the center of a Muller-Hinton agar plate that had been previously inoculated with an individual organism. Prior to placing the catheter segments in agar, each organism was grown for 18 hours in TSB to a concentration of 0.5 McFarland (10^8 cfu/ml). A cotton swab was placed in the suspension and streaked across the surface of the Muller-Hinton agar plate to cover the entire plate. All plates were placed in a 37° C. incubator for 24 hours. Zones were measured in mm after the incubation period (Table 2).
(§2) To evaluate the antimicrobial activity of central venous catheters treated with α-lipoic acid or its combination with doxycycline, segments of 7 French triple lumen polyurethane central venous catheters were impregnated with doxycycline or the combinations of α-lipoic acid and doxycycline using the same patented method described in Example 1 (U.S. Pat. No. 6,589,591) with 50 mg/ml of each agent (for the final solution volume). After the impregnation process and drying, zones of inhibition were performed on one-centimeter segments according to a modified Kirby-Bauer method against MSSE, MRSE, MRSA, K. pneumoniae, E. coli, P. aeruginosa, P. mirabilis, and C. albicans as described in Example 2. Zones of inhibition were measured in mm after the incubation period (Table 3).
(§3) To evaluate the antimicrobial activity of central venous catheters treated with lipoamide or its combination with levofloxacin, segments of 7 French triple lumen polyurethane central venous catheters were impregnated with levofloxacin or the combinations of lipoamide and levofloxacin using the same patented method described in Example 1 (U.S. Pat. No. 6,589,591) with 100 mg/ml (final solution volume) of each agent. After the impregnation process and drying, zones of inhibition were performed on one-centimeter segments according to a modified Kirby-Bauer method against MSSE, MRSE, MRSA, vancomycin-resistant Enterococcus (VRE), K. pneumoniae, E. coli, P. aeruginosa, P. mirabilis, and C. albicans as described in Example 2. Zones of inhibition were measured in mm after the incubation period (Table 4).
as §3, with “doxycycline,” for “levofloxacin,”, “doxycycline” for “levofloxacin”, “5).” for “4).”
(§4) To evaluate the antimicrobial activity of central venous catheters treated with dihydrolipoic acid, segments of 7 French triple lumen polyurethane central venous catheters were impregnated with dihydrolipoic acid using the same patented method described in Example 1 (U.S. Pat. No. 6,589,591) with 25 mg/ml (final solution volume) of the agent. […]

In the next experiment the test system is MRSE. It is filed as cell-based, Staphylococcus epidermidis. On the procedure: as §1, §2, §3
as §3, with “doxycycline,” for “levofloxacin,”, “doxycycline” for “levofloxacin”, “5).” for “4).”
as §4

Another experiment relates to Proteus mirabilis. It counts as cell-based. On the procedure:
as §1, §2, §3
as §3, with “doxycycline,” for “levofloxacin,”, “doxycycline” for “levofloxacin”, “5).” for “4).”
as §4

The next experiment deals with Klebsiella pneumoniae I. It counts as cell-based. On the procedure:
as §1, §2, §3
as §3, with “doxycycline,” for “levofloxacin,”, “doxycycline” for “levofloxacin”, “5).” for “4).”
as §4

The next experiment has as its system Klebsiella pneumoniae II. It is filed as cell-based. The protocol: as §1, §2, §3
as §3, with “doxycycline,” for “levofloxacin,”, “doxycycline” for “levofloxacin”, “5).” for “4).”
as §4

For another experiment, the system named is Escherichia coli. It counts as cell-based. The protocol:
as §1, §2, §3
as §3, with “doxycycline,” for “levofloxacin,”, “doxycycline” for “levofloxacin”, “5).” for “4).”
as §4

Another experiment has as its system Candida albicans. It is filed as cell-based. The protocol: as §1, §2, §3
as §3, with “doxycycline,” for “levofloxacin,”, “doxycycline” for “levofloxacin”, “5).” for “4).”
as §4

The test system of another experiment is Pseudomonas aeruginosa. It is filed as cell-based. The protocol: as §1, §2, §3
as §3, with “doxycycline,” for “levofloxacin,”, “doxycycline” for “levofloxacin”, “5).” for “4).”
as §4

Setting [1] is: catheter impregnated with 50 mg/ml of each agent, 37° C., 24 hours.
Setting [2] is: catheter impregnated with 25 mg/ml of the agent.
[3] abbreviates: catheter impregnated with 100 mg/ml of each agent.

For orientation: zone of inhibition means the size of the clear area around the sample on an inoculated plate. `O=C(O)CCCCC1CCSS1` (stereo not drawn) [Lipoic acid, 1,2-dithiolane-3-pentanoic acid]: the zone of inhibition at 50000 µg/mL in the experiment with MRSA (Staphylococcus aureus, catheter impregnated with 50 mg/ml of each agent, 37° C., 24 hours) is 13 mm; with MRSE (Staphylococcus epidermidis, catheter impregnated with 50 mg/ml of each agent, 37° C., 24 hours), 22 mm; in the experiment with Proteus mirabilis (setting [1]), 12 mm; in the experiment with Klebsiella pneumoniae I (setting [1]) it was 20 mm; in the experiment with Klebsiella pneumoniae II (Klebsiella pneumoniae, Klebsielle pneuminiae II, catheter impregnated with 50 mg/ml of each agent, 37° C., 24 hours) it was 18 mm; in the experiment with Escherichia coli (setting [1]), 12 mm. The zone of inhibition at 50000 µg/mL in the experiment with Candida albicans (setting [1]) stood at 10 mm; with Pseudomonas aeruginosa (Pseudomonas aeruginosa, catheter impregnated with 50 mg/ml of each agent, 37° C., 24 hours) it was 5 mm.
On to `O=C(O)CCCCC(S)CCS` (stereo not drawn) [Dihydrolipoic acid, 6,8-dimercaptooctanoic acid], for which the Zones of inhibition with MRSA (setting [2]) stood at 24 mm; with MRSE (setting [2]), 21 mm; in the experiment with Proteus mirabilis (setting [2]), 0 mm; in the experiment with Klebsiella pneumoniae I (setting [2]), 0 mm; in the experiment on Klebsiella pneumoniae II (Klebsiella pneumoniae II, catheter impregnated with 25 mg/ml of the agent), 0 mm; with Escherichia coli (setting [2]), 0 mm. Further, the Zones of inhibition was found to be 13 mm in the experiment with Candida albicans (setting [2]) and 11 mm in the experiment on Pseudomonas aeruginosa (Pseudomonas aeroginosa, catheter impregnated with 25 mg/ml of the agent).
Take `NC(=O)CCCCC1CCSS1` (stereo not drawn) [Lipoamide, lipoamide]: the zone of inhibition at 100000 µg/mL with MRSA (Staphylococcus aureus, catheter impregnated with 100 mg/ml of each agent) was 10 mm; in the experiment with MRSE (Staphylococcus epidermidis, catheter impregnated with 100 mg/ml of each agent) it was 16 mm; with Proteus mirabilis (setting [3]) it was 13 mm; in the experiment on Klebsiella pneumoniae I (setting [3]) it was 12 mm; in the experiment on Klebsiella pneumoniae II (Klebsiella pneumoniae II, catheter impregnated with 100 mg/ml of each agent), 13 mm; in the experiment on Escherichia coli (setting [3]), 10 mm. Also, the zone of inhibition at 100000 µg/mL was determined as 6 mm with Candida albicans (setting [3]) and 18 mm with Pseudomonas aeruginosa (Pseudomonas aeruginosa, Pseudomonas aeroginosa, catheter impregnated with 100 mg/ml of each agent).
